Results taken from patent publication US20150216189A1, “NATAMYCIN-CYCLODEXTRIN COMPLEXES FOR USE IN FOODSTUFF, PROCESS FOR THEIR MANUFACTURE AND USE THEREOF” (priority 2011, published 2015).

Tests used:
[1] = Description: Natamycin is sensitive to both high and low pH values and is degraded under such conditions. Despite this fact, the present invention utilizes such pH ranges. […] Typically the pH value is in the range of 10 to 12. In another embodiment the pH value of the aqueous solution in the complexation step is in the range of 6 or lower, preferably 1 to 4. Typically the pH value is lower than 4, such as in the range of 3 to 4. […] The tests in FIG. 1 and FIG. 2 were made through mixing natamycin (1%) and cyclodextrin (1%) with water (98%)
yeasts and moulds = conditions: cited from earlier work
[2] = cited from earlier work
mould = assay: Tortilla spray application shelf life study (mould growth); conditions: 21.7° C., no natamycin (variables 2, 3)
Experimental: A gamma-cyclodextrin-natamycin solution was produced employing a high pH system and the obtained solution was spray dried. Tortillas were treated with a standard natamycin (Natamax® SF) treatment, the spray-dried gamma-cyclodextrin-natamycin product, and traditional chemical preservatives to assess relative antifungal efficacy in baked goods.
Sample Variables in the Tortilla Treatments: • 1. Control—Deionized Water • 2. Control—Gamma-cyclodextrin (0.5% solution) • 3. Traditional Chemical Preservatives (fumarate, sorbate, propionate) • 4. Natamax® SF (target of ˜12 ppm natamycin on finished product) • 5. Gamma-cyclodextrin-natamycin powder (target of ˜12 ppm natamycin on finished product) • 6. Gamma-cyclodextrin-natamycin powder (target of ˜6 ppm natamycin on finished product)
For the spray application, each of the solutions were sprayed on 36 tortillas (about seven inches in diameter) using roughly the same spray volume. The tortillas were held on standard storage racks at 21.7° C. and monitored 0 to 30 days for mould growth.

[3] = Antifungal activity on baked goods
Description: Studies were done wherein aqueous solutions of natamycin-cyclodextrin complexes have been applied onto shredded cheese or used in pharmaceutical preparations.

Which results are given for C[C@@H]1C/C=C/C=C/C=C/C=C/[C@H](O[C@@H]2O[C@H](C)[C@@H](O)[C@H](N)[C@@H]2O)C[C@@H]2O[C@](O)(C[C@@H](O)C[C@H]3O[C@@H]3/C=C/C(=O)O1)C[C@H](O)[C@H]2C(=O)O [Natamycin]?
percentage of solubilized natamycin [1]: lower than 4%; concentrations inhibiting most strains (yeasts and moulds): 1-40 ppm; maximum water solubility [2]: around 40 ppm

Which results are given for OC[C@H]1O[C@@H]2O[C@H]3[C@H](O)[C@@H](O)[C@@H](O[C@H]4[C@H](O)[C@@H](O)[C@@H](O[C@H]5[C@H](O)[C@@H](O)[C@@H](O[C@H]6[C@H](O)[C@@H](O)[C@@H](O[C@H]7[C@H](O)[C@@H](O)[C@@H](O[C@H]8[C@H](O)[C@@H](O)[C@@H](O[C@H]9[C@H](O)[C@@H](O)[C@@H](O[C@H]1[C@H](O)[C@H]2O)O[C@@H]9CO)O[C@@H]8CO)O[C@@H]7CO)O[C@@H]6CO)O[C@@H]5CO)O[C@@H]4CO)O[C@@H]3CO [Variable 2, Gamma-cyclodextrin]?
Number of moulded tortillas (mould; Day 0): 0; Number of moulded tortillas (mould; Day 5): 20; Number of moulded tortillas (mould; Day 6): 25; Number of moulded tortillas (mould; Day 7): 26; Number of moulded tortillas (mould; Day 8): 28; Number of moulded tortillas (mould; Day 9): 28; Number of moulded tortillas (mould; Day 12): 30; Number of moulded tortillas (mould; Day 13): 30; Number of moulded tortillas (mould; Day 14): 30; Number of moulded tortillas (mould; Day 15): 30; Number of moulded tortillas (mould; Day 16): 30; Number of moulded tortillas (mould; Day 19): 30; Number of moulded tortillas (mould; Day 20): 30; Number of moulded tortillas (mould; Day 21): 30; Number of moulded tortillas (mould; Day 26): 30; Number of moulded tortillas (mould; Day 27): 30; Number of moulded tortillas (mould; Day 28): 30; Number of moulded tortillas (mould; Day 29): 30; Number of moulded tortillas (mould; Day 30): 30; antifungal activity when applied on baked goods [3]: no antifungal activity
